Assay: Rapid in vitro release testing of ibuprofen gel by UV/VIS area imaging
Format: in vitro ADME
Settings: calculated comparison value; extinction coefficient 1.5 dm^3 g^−1 cm^−1
Description: Measurements were made by switching the LED source of UV irradiation 51 and the LED source of VIS irradiation 52 and imaging at a frame rate of 2 Hz. […] Imaging is typically carried out alternately at a first wavelength where the API absorbs light (280 or 255 nm) and a second wavelength where there is no absorption (505 nm). […] The sample assembly 20 further comprises a fused silica elongate cuvette 22 which is cuboidal and open at the upper end with a width of 7 mm, a depth of 4 mm and a wall thickness of 1 mm. […] The fused silica elongate cuvette 22 is inserted vertically inside the elongate receptor cell 24 and is capped at a lower end with a membrane 21 which is glued in place. […] The sample assembly 20 further comprises an elongate substantially planar holder 30 for the API formulation 13 (the donor phase) which is slidably inserted in the fused silica elongate cuvette 22. The elongate substantially planar holder 30 projects beyond an upper end 22a of the fused silica elongate cuvette 22 to facilitate removal. […] The vertical bar (z direction) was used for measurement of the absorbance profiles spanning the donor phase, the membrane and the receptor phase (see FIGS. 3B to D).

Depletion value of the donor phase calculated from path length, ibuprofen concentration in the gel and literature extinction coefficient: −1.5 AU
Compound: CC(C)Cc1ccc(C(C)C(=O)O)cc1 (stereo not shown) [ibuprofen]
